In article PMC11117541, “The Truncated Peptide AtPEP1^(9–23) Has the Same Function as AtPEP1^(1–23) in Inhibiting Primary Root Growth and Triggering of ROS Burst” (Antioxidants, 2024):
Where a SMILES comes first, the peptide text is derived from it.

Key:
[1] = test system: root tip cells of Arabidopsis seedlings; assay: Root tip morphology, generation of root hairs; assay type: in vivo, Arabidopsis thaliana; settings: peptide for 4 days, up to 500 nM, n = 20
Method: (§1) Five-day-old seedlings were transferred from 1/2 MS medium to 1/2 MS medium supplemented with or without elicitor for four days. The transferred seedlings were photographed every day for a total of four days. The primary root length was measured using ImageJ software (V 1.8.0). After four days of elicitor treatment, the root tips of seedlings were observed by microscope and the fluorescence from root tip cells of GFP tag seedlings were excited with a 488 nm laser. Emission was detected between 495 and 550 nm. The images were acquired with an OLYMPUS FV10-MCPUS confocal laser scanning microscope. Images were processed using LSM image examiner software (FV10-ASW3.1) and Adobe Photoshop CS4 version 11.0.2 (Adobe Systems, San Jose, CA, USA).

[2] = test system: DR5::GFP (auxin maxima in root tips); assay: DR5::GFP reporter for auxin maxima in root tips; assay type: in vivo, Arabidopsis thaliana; settings: 500 nM peptide, four days, confocal microscopy, n = 20, one-way ANOVA
Excerpt: (§2) All plants used in this study are of the Arabidopsis thaliana accession Columbia-0 (Col-0) background, including the wild-type, mutant line pepr1-2pepr2-2 (pepr1/2, AT1G73080 and AT1G17750) and transgenic lines expressing WOX5::GFP (AT3G11260) and DR5::GFP [35]. DR5 was created by petforming site-directed mutations in a natural composite auxin response element (AuxRE) found in the soybean GH3 promoter. DR5 consisted of tandem direct repeats of 11 bp (CCTTTTGTCTC)
as §1

[3] = test system: ROS burst in Arabidopsis leaves (Col-0); assay: ROS burst, luminol dependent assay in Col-0 leaves; assay type: cell-based, Arabidopsis thaliana; settings: for concentration at which ROS burst is triggered: Col-0 leaf pieces, luminol L-012/HRP, luminescence recorded 30 min
Method: The measurement of ROS burst was carried out using a luminol dependent assay. Briefly, leaf samples were cut into small pieces and placed in a 96-well plate containing 0.1 mL reaction solution (2 µg/mL horseradish peroxidase, 200 µM luminol L-012). Luminescence signal was immediately measured upon the addition elicitor peptides and recorded for a period of 30 min. The total relative light units (RLUs) measured within a 15 min time was plotted.

[4] = test system: WOX5::GFP (quiescent center); assay: WOX5::GFP reporter in quiescent centre of root tips; assay type: in vivo, Arabidopsis thaliana; settings: 500 nM peptide, four days, confocal microscopy, n = 20
Excerpt: as §2, §1

[5] = test system: shoot (rosette) of Arabidopsis seedlings; assay: Shoot growth, diameter of rosettes (Figure S1); assay type: in vivo, Arabidopsis thaliana; settings: for Mean diff, A2 - B2, diameter of rosettes: two-way ANOVA output, by table order A = mock, B = peptide, row 2 = Day 4
[6] = test system: primary root growth of Arabidopsis thaliana Col-0 seedlings; assay type: in vivo; settings: n = 20; for inhibitory effect on primary root growth (in words): different concentrations up to 500 nM, 4 days; for concentration at which primary root growth is inhibited: five-day-old Col-0 seedlings transferred to 1/2 MS with peptide, up to 4 days
Method: For sterile seedlings, the seeds were first surface-sterilized with 75% ethanol twice. Then, after cold treatment at 4 °C for 2 days, the seeds were germinated on 1/2 Murashige-Skoog (MS) medium supplemented with 0.8% agar and 1% sucrose. For four-week-old plants, the seeds after cold treatment at 4 °C for 2 days were grown in a 1:1 mixture of sand: humus. Both growth environments were carried out in a growth cabinet with 12 h of light, a temperature of 22 °C, and 60% humidity.
as §1

AtPEP1^(9–23): truncating eight amino acids from the N-terminus of AtPEP1(1–23) (RGKEKVSSGRPGQHN; Elicitor peptide 1; UniProt Q9LV87 78-92, looked up, fragment)
generation of root hairs / maturation of root tip cells (in words) [1]: more efficient than AtPEP1^(1–23) | maximum levels of auxin in root tips (DR5::GFP fluorescence) compared with control [2]: significantly reduced | concentration at which ROS burst is triggered ([3]; n = 4): 10 nM | WOX5 expression (WOX5::GFP signaling width) compared with control [4]: increase in WOX5 expression | Mean diff, A2 - B2, diameter of rosettes [5]: 0.1045

AtPEP1^(13–23): truncating 12 amino acids from the N-terminus of AtPEP1(1–23) (KVSSGRPGQHN; Elicitor peptide 1; UniProt Q9LV87 82-92, looked up, fragment)
inhibitory effect on primary root growth (in words) [6]: did not show an obvious inhibitory effect | generation of root hairs / maturation of root tip cells (in words) [1]: did not promote the generation of root hairs | maximum levels of auxin in root tips (DR5::GFP fluorescence) compared with control [2]: did not show significant changes | concentration at which ROS burst is triggered ([3]; n = 4): 10 nM | inhibitory effect on the shoot (in words) ([5]; Figure S1, Table S7): does not inhibit | Mean diff, A2 - B2, diameter of rosettes [5]: 0.03538

AtPEP1^(5–23): truncated peptide of AtPEP1(1–23), residues 5–23 (KAKQRGKEKVSSGRPGQHN; Elicitor peptide 1; UniProt Q9LV87 74-92, looked up, fragment)
generation of root hairs / maturation of root tip cells (in words) [1]: more efficient than AtPEP1^(1–23) | maximum levels of auxin in root tips (DR5::GFP fluorescence) compared with control [2]: significantly reduced | concentration at which ROS burst is triggered ([3]; n = 4): 10 nM | WOX5 expression (WOX5::GFP signaling width) compared with control [4]: increase in WOX5 expression | Mean diff, A2 - B2, diameter of rosettes [5]: 0.1141

AtPEP1^(11–23): truncated peptide of AtPEP1(1–23), residues 11–23 (KEKVSSGRPGQHN; Elicitor peptide 1; UniProt Q9LV87 80-92, looked up, fragment)
inhibitory effect on primary root growth (in words) [6]: lower than that of AtPEP1^(1–23) | concentration at which primary root growth is inhibited [6]: 5 nM | generation of root hairs / maturation of root tip cells (in words) [1]: did not promote the generation of root hairs | maximum levels of auxin in root tips (DR5::GFP fluorescence) compared with control [2]: significantly reduced | concentration at which ROS burst is triggered ([3]; n = 4): 10 nM | WOX5 expression (WOX5::GFP signaling width) compared with control [4]: increase in WOX5 expression | Mean diff, A2 - B2, diameter of rosettes [5]: 0.1293

AtPEP1^(9–22): C-terminal truncated peptide created from AtPEP1(9–23) (RGKEKVSSGRPGQH; Elicitor peptide 1; UniProt Q9LV87 78-91, looked up, fragment)
generation of root hairs / maturation of root tip cells (in words) [1]: did not promote the generation of root hairs | maximum levels of auxin in root tips (DR5::GFP fluorescence) compared with control [2]: did not show significant changes | concentration at which ROS burst is triggered ([3]; n = 4): 100 nM | Mean diff, A2 - B2, diameter of rosettes [5]: -0.02327

CC(C)[C@H](NC(=O)[C@H](CCCCN)NC(=O)[C@H](CCC(=O)O)NC(=O)[C@H](CCCCN)NC(=O)CNC(=O)[C@H](CCCNC(=N)N)NC(=O)[C@H](CCC(N)=O)NC(=O)[C@@H](N)CCCCN)C(=O)N[C@@H](CO)C(=O)N[C@@H](CO)C(=O)NCC(=O)N[C@@H](CCCNC(=N)N)C(=O)N1CCC[C@H]1C(=O)NCC(=O)N[C@@H](CCC(N)=O)C(=O)N[C@@H](Cc1c[nH]cn1)C(=O)N[C@@H](CC(N)=O)C(=O)O [AtPEP1^(7–23)] (H-KQRGKEKVSSGRPGQHN-OH; N-terminus and C-terminus assumed)
generation of root hairs / maturation of root tip cells (in words) [1]: more efficient than AtPEP1^(1–23) | maximum levels of auxin in root tips (DR5::GFP fluorescence) compared with control [2]: significantly reduced | concentration at which ROS burst is triggered ([3]; n = 4): 10 nM | WOX5 expression (WOX5::GFP signaling width) compared with control [4]: increase in WOX5 expression | Mean diff, A2 - B2, diameter of rosettes [5]: 0.1995

AtPEP1^(1–23): plant elicitor peptide 1 (PEP1) from Arabidopsis thaliana, composed of 23 amino acids, immune elicitor (ATKVKAKQRGKEKVSSGRPGQHN; Elicitor peptide 1; UniProt Q9LV87 70-92, looked up) [reference compound]
concentration at which primary root growth is inhibited [6]: 50 nM | concentration that completely inhibited the primary root growth ([6]; five-day-old Col-0 seedlings, 4 days on peptide medium): 500 nM | generation of root hairs / maturation of root tip cells (in words) [1]: promoted the generation of root hairs | maximum levels of auxin in root tips (DR5::GFP fluorescence) compared with control [2]: significantly reduced | total ROS within 15 min compared to the control group ([3]; 10 nM peptide): no significant difference | concentration at which ROS burst is triggered ([3]; n = 4): 10 nM | concentration at which total ROS within 15 min was significantly higher than the control ([3]; total RLU within 15 min, one-way ANOVA, n = 4): greater than or equal to 100 nM | WOX5 expression (WOX5::GFP signaling width) compared with control [4]: increase in WOX5 expression | Mean diff, A2 - B2, diameter of rosettes [5]: 0.05081
